{
  "source": "patent US20210317090A1",
  "about": "“AMINO ACID DEPLETION AGENTS AS ANTIPROLIFERATIVE AGENTS” (University of Central Florida Research Foundation, Inc., priority 2018, published 2021)",
  "key": {"L3.6pl cells [1]": {"tested_on": "L3.6pl cells", "settings": "CDAP 100 μM (ref 10); cited from earlier work"}, "[2]": {"tested_on": "L3.6pl human pancreatic cancer cells", "settings": "L3.6pl cells, CDAP 100 μM (ref 10); cited from earlier work"}, "L3.6pl cells [3]": {"tested_on": "L3.6pl cells", "experiment": "Intracellular polyamine and Ant-44 levels (N-dansylation, HPLC) in L3.6pl cells", "assay_type": "cell-based, human", "settings": "Ant-44 only control (2 μM), 72 h", "method": "One explanation for the enhanced potency was that compound 10 (1666.255) increased polyamine import and, as a result, may have increased intracellular Ant-44 levels. To test this hypothesis, L3.6pl cells were dosed with a fixed concentration of Ant-44 (2 μM) alone and in combination with increasing concentrations of compound 10 (1666.255) to explore how this combination therapy affected intracellular polyamine pools and Ant-44 import.\nFIG. 7 is an example according to various embodiments, illustrating both single and combination therapies in L3.6pl cells with Ant-44 and compound 10 (1666.255) after 72 h incubation. Polyamine and Ant-44 levels (expressed as nmoles/mg protein) and relative % viability versus an untreated control were observed after 72 h incubation at 37° C. The untreated control was run in parallel and polyamine levels determined in duplicate and % cell viability in triplicate. Ant-44 was dosed at a fixed concentration of 2 μM and compound 10 (1666.255) at increasing concentrations. Cell viability tracked well with total intracellular polyamine levels (sum of putrescine, spermidine and spermine).\nIt was concluded that compound 10 was neither acting as a PTI nor as a polyamine import agonist. How then could it lead to intracellular polyamine depletion? […] To test this hypothesis, L3.6pl cells were dosed with increasing concentrations of compound 10 (1666.255) without Ant44. If compound 10 (1666.255) was acting on polyamine pools, one should see a reduction in total polyamine levels as well as decreased cell viability in a dose dependent manner upon increasing levels of 10. Therefore, the toxicity of compound 10 and intracellular polyamine levels after 72 h exposure to 10 were measured (FIG. 8).\nFIG. 8 is an example according to various embodiments, illustrating intracellular polyamine levels (expressed as nmoles polyamine/mg protein) in L3.6pl cells dosed with increasing concentrations of compound 10 (1666.255) after cells were incubated for 72 h at 37° C. The untreated control was run in parallel and polyamine levels determined in duplicate via N-dansylation and HPLC. The data was averaged and reported as nmol polyamine (PA)/mg protein.\nThis example illustrates aspects according to various embodiments pertaining to a 72 h experiment with Compound 10 in L3.6pl cells. Ten milliliters of a cell suspension containing L3.6pl human pancreatic cancer cells (50,000 cells/mL) and aminoguanidine (1 mM) were placed in treated plastic Petri dishes (d=9 cm) and incubated overnight at 37° C. After 24 h, the cells were dosed with compound 10 at 2 μM, 5 μM, or 7 μM. (Note: Stock solutions of 10 at 2, 5, and 7 mM were dissolved in phosphate buffered saline (PBS) and were filtered through a 0.2 μm filter prior to use. The experiments were maintained with a total volume of 10.01 mL where 10 mL of the cell suspension was placed in a plastic dish and each compound or the equivalent PBS volume was added to make up the total volume 10.01 mL for each dish. For example, for the control experiment PBS (10 μL) was added to make up the total volume (10 mL+10 μL=10.01 mL). After 72 h incubation, the cells were collected first by pipetting off the supernatant containing floating dead cells from the culture dish as well as media and placing them into 15 mL tubes. The supernatant containing floating cells was centrifuged (4 min at 1,000 rpm). The cell-free supernatant (supernatant #1) was collected into a new 15 mL tube and quantified (˜8.6 mL) and was then stored frozen and was later quantified by LCMS to investigate the media composition of particular polyamine and amino acid analytes. The attached cells on the dish were washed with PBS (5 mL). The PBS wash was removed by suction and additional PBS (2 mL) was added and again suctioned off to provide twice-washed cells still adhered to the dish. Trypsin (2 mL) was then added to each dish and incubated (3-5 min) until all the cells were detached. Fresh media (8 mL) was added to quench the trypsin. […]"}, "[4]": {"tested_on": "L3.6pl human pancreatic cancer cells", "experiment": "Cytotoxicity dose-response (MTS) in L3.6pl cells", "assay_type": "cell-based", "settings": "L3.6pl cells, previously determined; read-out: 72 h IC50", "method": "L3.6pl Studies. Compounds 9 and 10 were evaluated in the metastatic human pancreatic cancer cell line, L3.6pl. L3.6pl has a K-ras mutation, and high polyamine uptake activity.^7 A dose-response curve was obtained for each compound in L3.6pl cells to determine the 72 h L3.6pl IC50 value, described as the dose at which L3.6pl cells were 50% viable compared to the untreated control.\nRegarding the biological studies performed in the following examples, it is noted that CHO K1, CHO-MG, and L3.6pl cells were grown in RPMI 1640 medium supplemented with 10% fetal bovine serum (FBS) and 1% penicillin/streptomycin. All cells were grown at 37° C. under a humidified 5% CO2 atmosphere. Aminoguanidine (1 mM used for CHO K1 and CHOMG cells and 250 μM for L3.6pl) was added to the growth medium to prevent oxidation of the compounds of the bovine serum amine oxidase enzyme that is present in calf serum. The cells used were in early to mid log phase and CHO and CHOMG were plated out at 1000 cells/well, whereas the L3.6pl cells were plated at 500 cells/well in a 96 well plate format.\nThis example illustrates aspects according to various embodiments pertaining to IC50 determinations and cell viability studies. Cell growth was assayed in sterile 96-well microtiter plates (Costar 3599, Corning, N.Y.). CHO K1 or CHOMG cells were plated at 1,000 cells/70 μL and L3.6pl cells at 500 cells/70 μL. The drug solutions of appropriate concentration in phosphate buffered saline (PBS) were added 10 μL per well after overnight incubation. After drug exposure (e.g., for 48 h for CHO K1 and CHO-MG and 48 h or 72 h for L3.6pl), cell growth was determined by measuring formazan formation from the 3-(4,5dimethylthiazol-2-yl)-5-(3-carboxymethoxyphenyl)-2-(4-sulfenyl)-2H tetrazolium, inner salt (MTS) using SynergyMx Biotek microplate reader for absorbance (490 nm) measurements.^27 All experiments were run in triplicate."}, "[5]": {"tested_on": "polyamine transport system (PTS)", "settings": "CHO vs CHO-MG (ref 17); cited from earlier work"}},
  "data": [
    {"smiles": "NCCCNC1CCCCC1", "note": "[CDAP, N-(3-aminopropyl)-cyclohexylamine]", "values": [
      {"measurement": "Intracellular Spermine", "setting": "L3.6pl cells [1]", "result": "no detectable spermine"},
      {"measurement": "viability", "setting": "[2]", "result": 100, "unit": "%"}
    ]},
    {"smiles": "Cl.NCCCCNCCCCNCc1c2ccccc2cc2ccccc12", "note": "[Ant-44, reference compound]", "values": [
      {"measurement": "intracellular level of Ant-44", "setting": "L3.6pl cells [3]", "result": "2.15±0.10", "unit": "nmol Ant44/mg protein"},
      {"measurement": "IC50", "setting": "[4]", "result": 4, "unit": "µM"},
      {"measurement": "preference for CHO cell line over CHO-MG (IC50 comparison)", "setting": "[5]", "result": "~150", "unit": "fold"}
    ]}
  ]
}
